Our source for the IC50 values is US8710089B2, “Triazole derivatives as ghrelin analogue ligands of growth hormone secretagogue receptors” (Zentaris GmbH, priority 2005, dated 2014).

The structures appear in SMILES notation. pIC50: −log10 of the molar value.

In the experiment the target is T1, human GHS-R 1a (Homo sapiens, UniProt Q92847).
T1 construct: expressed in transfected cells; host or cells: LLC PK-1 porcine renal epithelial cells (ECACC No. 86121112), isolated plasma membranes
T1 sequence (Q92847 whole entry): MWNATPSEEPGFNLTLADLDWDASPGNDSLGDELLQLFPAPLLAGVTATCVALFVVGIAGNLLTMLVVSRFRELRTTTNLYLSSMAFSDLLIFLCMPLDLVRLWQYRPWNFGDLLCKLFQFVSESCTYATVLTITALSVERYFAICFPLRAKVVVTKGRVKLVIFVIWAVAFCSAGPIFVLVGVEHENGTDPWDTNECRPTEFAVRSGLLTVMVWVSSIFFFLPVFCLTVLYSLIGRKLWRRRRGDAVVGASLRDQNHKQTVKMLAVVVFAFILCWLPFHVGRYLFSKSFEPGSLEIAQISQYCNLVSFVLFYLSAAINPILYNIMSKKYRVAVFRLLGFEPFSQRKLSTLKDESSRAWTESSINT
Put plainly: GHS-R 1a receptor-ligand binding assay (membrane preparations from transfected LLC PK-1 cells). As to conditions: displacement of 125I-His9-ghrelin (60 pM); membranes of LLC PK-1 cells transfected with human GHS-R 1a; mean of at least two independent experiments in triplicates. Here is the method: (J. Med. […] Med. Chem. 2003, 46: 1191-1203), were incubated in homogenization buffer HB [50 mM Tris (pH 7.3), 5 mM MgCl2, 2.5 mM EDTA, and 30 μg/mL bacitracin (Sigma)] for 60 min at 25° C. (steady-state conditions) with 60 pM ^125I-[…]-ghrelin (Amersham) in the presence or absence of competing compounds (compounds of the invention). […] Nonspecific binding was defined using an excess (10^-6 M) of ghrelin. The binding reaction was stopped by addition of 4 mL of ice-cold HB followed by rapid filtration over Whatman GP/C filters presoaked with 0.5% polyethyleneimine to prevent excessive binding of radioligand to the filters. […] IC50 values given are the mean of at least two independent experiments performed in triplicates.
For the compound `O=C(N[C@H](Cc1c[nH]c2ccccc12)c1nnc(CCc2c[nH]c3ccccc23)n1Cc1ccccc1)C1CCCNC1` (mixture of isomers) [compound 55, (R)—N-(1-(5-(2-(1H-indol-3-yl)ethyl)-4-benzyl-4H-1,2,4-triazol-3-yl)-2-(1H-indol-3-yl)ethyl)piperidine-3-carboxamide], the pIC50 was 7.96.

`CCc1ccc(Cn2c(CCc3ccccc3)nnc2[C@@H](Cc2c[nH]c3ccccc23)NC(=O)C2CNCCN2)cc1` (mixture of isomers) [compound 84] had a pIC50 of 6.61.

As to `COC(=O)CCn1nnnc1[C@@H](Cc1c[nH]c2ccccc12)NC(=O)C(C)(C)N` [Example 3 from WO 00/54729 A2, (R)—N-(1-(1-methylpropanoate-tetrazol-5-yl)-2-(1H-indol-3-yl)ethyl)-2-amino-2-methylpropanamide, reference compound], the pIC50 was about 5.52.

For the compound `CC(C)(C)Sc1nnc([C@@H](COCc2ccccc2)NC(=O)C(C)(C)N)n1Cc1ccccc1` [Example 8 from WO 00/54729 A2, (S)—N-(1-(4-benzyl-5-(tert-butylthio)-1,2,4-triazol-3-yl)-2-(benzyloxy)ethyl)-2-amino-2-methylpropanamide, reference compound], the pIC50 was about 4.70.

On to `CC(C)(C)Sc1nnc([C@@H](Cc2c[nH]c3ccccc23)NC(=O)C(C)(C)N)n1Cc1ccco1` [Example 39 from WO 00/54729 A2, (R)—N-(1-(5-(tert-butylthio)-4-(furan-2-ylmethyl)-4H-1,2,4-triazol-3-yl)-2-(1H-indol-3-yl)ethyl)-2-amino-2-methylpropanamide, reference compound], for which the negative-log IC50 (pIC50) was about 5.30.

On to `CC(C)(N)C(=O)N[C@H](COCc1ccccc1)c1nnnn1Cc1ccccc1` [Example from page 175, WO 00/54729 A2, (S)—N-(1-(1-benzyl-tetrazol-5-yl)-2-(benzyloxy)ethyl)-2-amino-2-methylpropanamide, reference compound], for which the pIC50 was about 4.60.

`CC(C)(N)C(=O)N[C@H](Cc1c[nH]c2ccccc12)c1nnc(CCc2c[nH]c3ccccc23)n1CCc1ccccc1` [compound 2, (R)—N-(1-(5-(2-(1H-indol-3-yl)ethyl)-4-phenethyl-4H-1,2,4-triazol-3-yl)-2-(1H-indol-3-yl)ethyl)-2-amino-2-methylpropanamide] showed a pIC50 of 7.09.

In turn, `CC(C)(N)C(=O)N[C@H](Cc1c[nH]c2ccccc12)c1nnc(CCCc2c[nH]c3ccccc23)n1CCc1ccccc1` [compound 3, (R)—N-(1-(5-(3-(1H-indol-3-yl)propyl)-4-phenethyl-4H-1,2,4-triazol-3-yl)-2-(1H-indol-3-yl)ethyl)-2-amino-2-methylpropanamide] had a pIC50 of 7.85.

As to `CC(C)(N)C(=O)N[C@H](Cc1c[nH]c2ccccc12)c1nnc(Cc2ccccc2)n1Cc1cccc2ccccc12` [compound 4, (R)—N-(1-(5-benzyl-4-(naphthalen-1-ylmethyl)-4H-1,2,4-triazol-3-yl)-2-(1H-indol-3-yl)ethyl)-2-amino-2-methylpropanamide], the pIC50 was 6.66.

`CC(C)(N)C(=O)N[C@H](Cc1c[nH]c2ccccc12)c1nnc(CCc2c[nH]c3ccccc23)n1Cc1cccc2ccccc12` [compound 5, (R)—N-(1-(5-(2-(1H-indol-3-yl)ethyl)-4-(naphthalen-1-ylmethyl)-4H-1,2,4-triazol-3-yl)-2-(1H-indol-3-yl)ethyl)-2-amino-2-methylpropanamide] showed a pIC50 of 6.90.

For `COc1cccc(Cn2c(CCc3c[nH]c4ccccc34)nnc2[C@@H](Cc2c[nH]c3ccccc23)NC(=O)C(C)(C)N)c1` [compound 6, (R)—N-(1-(5-(2-(1H-indol-3-yl)ethyl)-4-(3-methoxybenzyl)-4H-1,2,4-triazol-3-yl)-2-(1H-indol-3-yl)ethyl)-2-amino-2-methylpropanamide], the pIC50 was 7.74.

In turn, `COc1cccc(Cn2c(Cc3ccccc3)nnc2[C@@H](Cc2c[nH]c3ccccc23)NC(=O)C(C)(C)N)c1` [compound 7, (R)—N-(1-(4-(3-methoxybenzyl)-5-benzyl-4H-1,2,4-triazol-3-yl)-2-(1H-indol-3-yl)ethyl)-2-amino-2-methylpropanamide] had a negative-log IC50 (pIC50) of 6.92.

`CC(C)(N)C(=O)N[C@H](Cc1c[nH]c2ccccc12)c1nnc(CCc2c[nH]c3ccccc23)n1Cc1ccccc1` [compound 8, (R)—N-(1-(5-(2-(1H-indol-3-yl)ethyl)-4-benzyl-4H-1,2,4-triazol-3-yl)-2-(1H-indol-3-yl)ethyl)-2-amino-2-methylpropanamide] had a pIC50 of 7.74.

Consider `COc1cccc(Cn2c(CCCc3c[nH]c4ccccc34)nnc2[C@@H](Cc2c[nH]c3ccccc23)NC(=O)C(C)(C)N)c1` [compound 10, (R)—N-(1-(5-(3-(1H-indol-3-yl)propyl)-4-(3-methoxybenzyl)-4H-1,2,4-triazol-3-yl)-2-(1H-indol-3-yl)ethyl)-2-amino-2-methylpropanamide], for which the pIC50 was 7.49.

In turn, `CC(C)(N)C(=O)N[C@H](Cc1c[nH]c2ccccc12)c1nnc(CCCc2c[nH]c3ccccc23)n1Cc1cccc2ccccc12` [compound 11, (R)—N-(1-(5-(3-(1H-indol-3-yl)propyl)-4-(naphthalen-1-ylmethyl)-4H-1,2,4-triazol-3-yl)-2-(1H-indol-3-yl)ethyl)-2-amino-2-methylpropanamide] showed a pIC50 of 6.86.

Turning to `CC(C)(N)C(=O)N[C@H](Cc1c[nH]c2ccccc12)c1nnc(CCCc2c[nH]c3ccccc23)n1Cc1ccc(Br)cc1` [compound 14, (R)—N-(1-(5-(3-(1H-indol-3-yl)propyl)-4-(4-bromobenzyl)-4H-1,2,4-triazol-3-yl)-2-(1H-indol-3-yl)ethyl)-2-amino-2-methylpropanamide], the pIC50 is 6.82.

For the compound `CCCCCCn1c(CCc2c[nH]c3ccccc23)nnc1[C@@H](Cc1c[nH]c2ccccc12)NC(=O)C(C)(C)N` [compound 15, (R)—N-(1-(5-(2-(1H-indol-3-yl)ethyl)-4-hexyl-4H-1,2,4-triazol-3-yl)-2-(1H-indol-3-yl)ethyl)-2-amino-2-methylpropanamide], the pIC50 is 6.92.

Compound `CCCCCCn1c(CCCc2c[nH]c3ccccc23)nnc1[C@@H](Cc1c[nH]c2ccccc12)NC(=O)C(C)(C)N` [compound 16, (R)—N-(1-(5-(3-(1H-indol-3-yl)propyl)-4-hexyl-4H-1,2,4-triazol-3-yl)-2-(1H-indol-3-yl)ethyl)-2-amino-2-methylpropanamide] gave a pIC50 of 6.62.

Turning to `COc1ccc(Cn2c(CCc3c[nH]c4ccccc34)nnc2[C@H](Cc2c[nH]c3ccccc23)NC(=O)C(C)(C)N)c(OC)c1` [compound 18, (S)—N-(1-(5-(2-(1H-indol-3-yl)ethyl)-4-(2,4-dimethoxybenzyl)-4H-1,2,4-triazol-3-yl)-2-(1H-indol-3-yl)ethyl)-2-amino-2-methylpropanamide], the negative-log IC50 (pIC50) is 7.08.

As for `COc1cccc(Cn2c(CCc3ccccc3)nnc2[C@@H](Cc2c[nH]c3ccccc23)NC(=O)C(C)(C)N)c1` [compound 19, (R)—N-(1-(4-(3-methoxybenzyl)-5-phenethyl-4H-1,2,4-triazol-3-yl)-2-(1H-indol-3-yl)ethyl)-2-amino-2-methylpropanamide], the negative-log IC50 (pIC50) was 7.11.

`COc1cc(Cn2c(CCc3c[nH]c4ccccc34)nnc2[C@@H](Cc2c[nH]c3ccccc23)NC(=O)C(C)(C)N)cc(OC)c1` [compound 21, (R)—N-(1-(5-(2-(1H-indol-3-yl)ethyl)-4-(3,5-dimethoxybenzyl)-4H-1,2,4-triazol-3-yl)-2-(1H-indol-3-yl)ethyl)-2-amino-2-methylpropanamide] gave a pIC50 of 6.69.

In the case of `COc1ccc(Cn2c(CCCc3c[nH]c4ccccc34)nnc2[C@@H](Cc2c[nH]c3ccccc23)NC(=O)C(C)(C)N)cc1` [compound 23, (R)—N-(1-(5-(3-(1H-indol-3-yl)propyl)-4-(4-methoxybenzyl)-4H-1,2,4-triazol-3-yl)-2-(1H-indol-3-yl)ethyl)-2-amino-2-methylpropanamide], the negative logarithm of the IC50 (pIC50) is 7.43.

In the case of `COc1ccccc1Cn1c(CCc2c[nH]c3ccccc23)nnc1[C@@H](Cc1c[nH]c2ccccc12)NC(=O)C(C)(C)N` [compound 25], the pIC50 is 7.02.

`COc1ccccc1Cn1c(CCc2ccccc2)nnc1[C@@H](Cc1c[nH]c2ccccc12)NC(=O)C(C)(C)N` [compound 26, (R)—N-(1-(4-(2-methoxybenzyl)-5-phenethyl-4H-1,2,4-triazol-3-yl)-2-(1H-indol-3-yl)ethyl)-2-amino-2-methylpropanamide] gave a negative logarithm of the IC50 (pIC50) of 7.25.

Turning to `CC(C)(N)C(=O)N[C@H](Cc1c[nH]c2ccccc12)c1nnc(CCc2ccccc2)n1Cc1cccc2ccccc12` [compound 27, (R)—N-(2-(1H-indol-3-yl)-1-(4-(naphthalen-1-ylmethyl)-5-phenethyl-4H-1,2,4-triazol-3-yl)ethyl)-2-amino-2-methylpropanamide], the pIC50 was 6.90.

In turn, `CC(C)(N)C(=O)N[C@H](Cc1c[nH]c2ccccc12)c1nnc(CCc2c[nH]c3ccccc23)n1Cc1ccc(Cl)c(Cl)c1` [compound 28, (R)—N-(1-(5-(2-(1H-indol-3-yl)ethyl)-4-(3,4-dichlorobenzyl)-4H-1,2,4-triazol-3-yl)-2-(1H-indol-3-yl)ethyl)-2-amino-2-methylpropanamide] had a pIC50 of 7.10.

`CC(C)(N)C(=O)N[C@H](Cc1c[nH]c2ccccc12)c1nnc(CCc2c[nH]c3ccccc23)n1Cc1ccc(F)cc1` [compound 29, (R)—N-(1-(5-(2-(1H-indol-3-yl)ethyl)-4-(4-fluorobenzyl)-4H-1,2,4-triazol-3-yl)-2-(1H-indol-3-yl)ethyl)-2-amino-2-methylpropanamide] had a pIC50 of 7.18.
